The assay relates to NRG1-ERBB4 signaling. The experiment in a line: Nrg1-ERBB4-PIK3R1 split TEV co-culture compound screen of the NIH Clinical Collection. In kind it is cell-based, human.
[1] abbreviates: compound screen of the NIH Clinical Collection, sheet raw data NCC-003, compounds ranked by Z-score.
Where [2] appears, read: compounds at 10 μM, 24 h, PC12 split TEV assay cells co-cultured with Nrg1-expressing PC12 cells, analysed with cellHTS2.
Where [3] appears, read: NIH Clinical Collection NCC-003 raw data, compounds ranked by Z-score, 'flagged' given instead of a Z-score.

Structures can show the parent of a compound that is named as a salt.

For the compound `Nc1nc(=O)[nH]cc1F` [5-FLUOROCYTOSINE], under setting [1], the Z-SCORE is listed as -0.59.

On to `CN1C2CCCC1CC(NC(=O)c1nn(C)c3ccccc13)C2` (centres unmarked) [GRANISETRON HCl], for which the Z-SCORE under setting [1] was determined as 0.21.

With `Cc1cc(NS(=O)(=O)c2ccc(N)cc2)no1` [Sulfamethoxazole, reference compound], the Z-SCORE under setting [2] is on record as 0.87.

Turning to `CC1(C)S[C@@H]2[C@H](NC(=O)[C@H](N)c3ccccc3)C(=O)N2[C@H]1C(=O)O` [Ampicillin Sodium, reference compound], the Z-SCORE under setting [2] is given as -1.31.

For `CN(CCOc1ccc(CC2SC(=O)NC2=O)cc1)c1ccccn1` (centres unmarked) [ROSIGLITAZONE MALEATE], under setting [1], the Z-SCORE is -0.83.

In the case of `COc1cc(N)c(Cl)cc1C(=O)NC1CN2CCC1CC2` (centres unmarked) [Zacopride], the Z-SCORE under setting [1] is given as -0.82.

In the case of `CCc1cccc2c3c([nH]c12)C(CC)(CC(=O)O)OCC3` (centres unmarked) [Etodolac, reference compound], the Z-SCORE under setting [2] is recorded as -0.28.

In the case of `CN1CCN(C2=Nc3cc(F)ccc3Cc3ccccc32)CC1` [Fluperlapine], the Z-SCORE under setting [1] is -0.5.

Under setting [2], `CC1COc2c(N3CCN(C)CC3)c(F)cc3c(=O)c(C(=O)O)cn1c23` (centres unmarked) [OFLOXACIN, reference compound] displayed a Z-SCORE of 0.8.

`CS(=O)(=O)O.O=C1CC2(CCCC2)CC(=O)N1CCNCC1COc2ccccc2O1` (centres unmarked) showed a Z-SCORE under setting [1] of 0.35.

Under setting [1], `CCN(CC)C(=O)C1(c2ccccc2)CC1CN` (centres unmarked) [Milnacipran] registered a Z-SCORE of 0.97.

Consider `CC[C@H](C)C(=O)O[C@H]1C[C@H](O)C=C2C=C[C@H](C)[C@H](CC[C@@H](O)C[C@@H](O)CC(=O)O)[C@H]21` [PRAVASTATIN Sodium], for which, under setting [1], the Z-SCORE is -0.44.

For the compound `CCCCC(=O)N(Cc1ccc(-c2ccccc2-c2nnn[nH]2)cc1)[C@H](C(=O)O)C(C)C`, the Z-SCORE under setting [1] was -0.23.

On to `CCOC(=O)C1=C(C)NC(C)=C(C(=O)OC)C1c1cccc([N+](=O)[O-])c1` (centres unmarked) [NITRENDIPINE], for which, under setting [3], the Z-SCORE is listed as -1.82.

`CC(=O)NS(=O)(=O)c1ccc(N)cc1` [Sulfacetamide, reference compound] registered a Z-SCORE under setting [2] of 0.29.

Take `CCCOc1ccc(C(=O)OCCN(CC)CC)cc1N` [Proparacaine hydrochloride, reference compound]: the Z-SCORE under setting [2] is 0.5.

Take `COc1ccccc1N1CCN(CC(O)COc2cccc3ccccc23)CC1` (centres unmarked) [NAFTOPIDIL]: the Z-SCORE under setting [1] is recorded as 0.24.

For the compound `CC(=O)[C@H]1CC[C@H]2[C@@H]3CCC4=CC(=O)CC[C@]4(C)[C@H]3CC[C@]12C` [PROGESTERONE], under setting [3], the Z-SCORE is listed as -1.2.

Consider `Nc1ncnc2c1ncn2[C@@H]1O[C@H](CO)C[C@H]1O` [3'-Deoxydenosine, reference compound], for which the Z-SCORE was found to be 5.88 under setting [1] and 5.88 under setting [2].

Under setting [2], `COc1c(N2CCNC(C)C2)c(F)cc2c(=O)c(C(=O)O)cn(C3CC3)c12` (centres unmarked) [Gatifloxacin, reference compound] had a Z-SCORE of 1.07.

Under setting [1], `CC(N/C(=N\C#N)Nc1ccncc1)C(C)(C)C` (centres unmarked) [Pinacidil monohydrate] showed a Z-SCORE of 0.85.

For `COc1cccc2c1C(=O)c1c(O)c3c(c(O)c1C2=O)C[C@@](O)(C(=O)CO)C[C@@H]3O[C@H]1C[C@H](N)[C@H](O)[C@H](C)O1` [DOXORUBICIN HYDROCHLORIDE], the Z-SCORE result under setting [3] is recorded as “flagged”.

Turning to `CN(C)c1ccc(O)c2c1C[C@H]1C[C@H]3[C@H](N(C)C)C(O)=C(C(N)=O)C(=O)[C@@]3(O)C(O)=C1C2=O` [MINOCYCLINE HYDROCHLORIDE, reference compound], the Z-SCORE under setting [2] is on record as -0.02.

`COC1=C(OC)C(=O)C(CCCCCCCCCCO)=C(C)C1=O` [IDEBENONE] showed a Z-SCORE under setting [1] of 2.79.

In the case of `CC(=O)NCCCCCCNC(C)=O`, the Z-SCORE under setting [1] was determined as 1.08.

Consider `O=c1n(CCCN2CCN(c3cccc(Cl)c3)CC2)nc2ccccn12` [TRAZODONE HYDROCHLORIDE], for which, under setting [1], the Z-SCORE is listed as 0.17.

Regarding `COC(=O)C1=C(C)NC(C)=C(C(=O)OCCN(C)Cc2ccccc2)C1c1cccc([N+](=O)[O-])c1` (centres unmarked) [Cardene, reference compound], the Z-SCORE under setting [2] was -1.07.

Take `NCCc1ccccn1` [2-(2-AMINOETHYL)PYRIDINE]: the Z-SCORE under setting [1] is on record as 2.15.

Under setting [1], `c1ccc2c3c([nH]c2c1)CNCC3` [TRYPTOLINE] showed a Z-SCORE of 0.19.

For `CN(C)C(=O)Oc1ccc[n+](C)c1` [Mestinon, reference compound], the Z-SCORE under setting [2] was -0.37.

Regarding `COc1cc(/C=C/c2ccc(O)cc2)cc(OC)c1` [PTEROSTILBENE], the Z-SCORE under setting [1] is recorded as -0.71.

`COC(=O)N1CCN(C(=O)Cc2ccc(Cl)c(Cl)c2)C(CN2CCCC2)C1` (centres unmarked) [GR 89696] came in with a Z-SCORE under setting [1] of 1.46.

With `COc1c(N2C[C@@H]3CCCN[C@@H]3C2)c(F)cc2c(=O)c(C(=O)O)cn(C3CC3)c12` [MOXIFLOXACIN HCl], the Z-SCORE under setting [1] was -0.35.

Consider `CN1CCN(c2nc3cc(C(F)(F)F)ccc3n3cccc23)CC1.O=C(O)/C=C\C(=O)O.O=C(O)/C=C\C(=O)O` [CGS 12066B], for which the Z-SCORE under setting [1] is reported as 0.3.

As for `CN(C)[C@@H]1C(O)=C(C(=O)NCN2CCCC2)C(=O)[C@@]2(O)C(O)=C3C(=O)c4c(O)cccc4[C@@](C)(O)[C@H]3C[C@@H]12` [ROLITETRACYCLINE], the Z-SCORE under setting [1] is reported as -0.5.

Take `CCOc1cc(CC(=O)N[C@@H](CC(C)C)c2ccccc2N2CCCCC2)ccc1C(=O)O` [REPAGLINIDE]: under setting [1], the Z-SCORE came to 1.38.

Turning to `CN1CCC(=C2c3ccccc3CC(=O)c3sccc32)CC1` [KETOTIFEN FUMARATE], under setting [1], the Z-SCORE was -0.37.

`CC(c1cc2ccccc2s1)N(O)C(N)=O` (centres unmarked) [ZILEUTON]: the Z-SCORE under setting [1] is 1.28.

Turning to `COc1cccc(C2(O)CCCCC2CN(C)C)c1` (centres unmarked) [Tramadol], the Z-SCORE under setting [1] is -0.17.

`CCOC(=O)[C@H](CCc1ccccc1)N[C@H]1CCc2ccccc2N(CC(=O)O)C1=O` [BENAZEPRIL HCl]: the Z-SCORE under setting [1] came to 0.26.

The compound `CC(C)NCC(O)COc1ccc(COCCOC(C)C)cc1` (centres unmarked) [BISOPROLOL FUMARATE] registered a Z-SCORE under setting [1] of 0.59.

Under setting [1], `O=c1c(O[C@@H]2O[C@H](CO)[C@H](O)[C@H](O)[C@H]2O)c(-c2ccc(O)c(O)c2)oc2cc(O)cc(O)c12` [HYPEROSIDE] yielded a Z-SCORE of 0.68.

Turning to `CC[C@@H]1C=CC=CC[C@H](C)[C@@H](O)[C@@H](C)C(=O)[C@H](C)[C@@H](O)[C@H](C)C(=O)[C@H](C)[C@@H](O)[C@H](C)C=CC(=O)O[C@H]2[C@@H](C)[C@@H](CC1)O[C@@]1(CC[C@@H](C)[C@@H](C[C@H](C)O)O1)[C@@H]2C` [[…]], the Z-SCORE under setting [1] was -0.54.

Consider `O=c1c(O[C@@H]2O[C@H](CO)[C@@H](O)[C@H](O)[C@H]2O)c(-c2ccc(O)c(O)c2)oc2cc(O)cc(O)c12` [Isoquercitrin], for which the Z-SCORE under setting [1] is given as 0.55.

In the case of `CN[C@@H]1[C@H](O)[C@H](NC)[C@H]2O[C@@]3(O)C(=O)C[C@@H](C)O[C@H]3O[C@@H]2[C@H]1O.Cl.Cl.O.O.O.O.O` [SPECTINOMYCIN DIHYDROCHLORIDE PENTAHYDRATE, reference compound], the Z-SCORE under setting [2] came out at 0.04.

As for `COCc1c(C(C)C)nc(C(C)C)c(/C=C/[C@@H](O)C[C@@H](O)CC(=O)[O-])c1-c1ccc(F)cc1.[Na+]` [CERIVASTATIN Na], the Z-SCORE result under setting [3] was “flagged”.

The record behind these values is publication PMC5653977 (EMBO Molecular Medicine, 2017).
